Data taken from US7795278B2 (sanofi-aventis Deutschland GmbH, priority 2004, dated 2010).

These compounds were tested against recombinantly expressed human PARP-1 enzyme (Homo sapiens, UniProt P09874) (assay: PARP enzyme assay (half-maximum inhibitor concentration)). Settings: DNA-activated PARP-1, 200 μM NAD, tritium-labeled NAD incorporation, room temperature, 1 hour, pH 8.0.
Assay type: biochemical
Procedure: Pharmacological Investigations PARP Enzyme Assay
The half-maximum inhibitor concentration is determined by incubating the substances to be tested with the DNA-activated, recombinantly expressed and purified PARP-1 enzyme. Specifically, various concentrations of the test substance are incubated in 50 μl of reaction solution, which contains 50 mM Tris, 5 mM MgCl2, 1 mM DTT, 200 μM NAD, 0.1 mCi/ml tritium-labeled NAD, 0.1 mg/ml DNA, 0.1 mg/ml histones, 2 μg/ml recombinantly expressed human PARP-1 enzyme, pH=8.0, at room temperature for 1 hour. The reaction is stopped by adding 150 μl of 20% trichloroacetic acid, and the radiolabeled protein constituents are precipitated. After incubation on ice for 10 minutes, the labeled, insoluble constituents are separated off through a glass fiber filter and, after washing with 20% trichloroacetic acid three times, the radioactivity incorporated by the PARP-1 enzyme is measured by radioluminescence.
IC-50 values were determined in this way for the following compounds: […]

Sequence of recombinantly expressed human PARP-1 enzyme (P09874 whole entry): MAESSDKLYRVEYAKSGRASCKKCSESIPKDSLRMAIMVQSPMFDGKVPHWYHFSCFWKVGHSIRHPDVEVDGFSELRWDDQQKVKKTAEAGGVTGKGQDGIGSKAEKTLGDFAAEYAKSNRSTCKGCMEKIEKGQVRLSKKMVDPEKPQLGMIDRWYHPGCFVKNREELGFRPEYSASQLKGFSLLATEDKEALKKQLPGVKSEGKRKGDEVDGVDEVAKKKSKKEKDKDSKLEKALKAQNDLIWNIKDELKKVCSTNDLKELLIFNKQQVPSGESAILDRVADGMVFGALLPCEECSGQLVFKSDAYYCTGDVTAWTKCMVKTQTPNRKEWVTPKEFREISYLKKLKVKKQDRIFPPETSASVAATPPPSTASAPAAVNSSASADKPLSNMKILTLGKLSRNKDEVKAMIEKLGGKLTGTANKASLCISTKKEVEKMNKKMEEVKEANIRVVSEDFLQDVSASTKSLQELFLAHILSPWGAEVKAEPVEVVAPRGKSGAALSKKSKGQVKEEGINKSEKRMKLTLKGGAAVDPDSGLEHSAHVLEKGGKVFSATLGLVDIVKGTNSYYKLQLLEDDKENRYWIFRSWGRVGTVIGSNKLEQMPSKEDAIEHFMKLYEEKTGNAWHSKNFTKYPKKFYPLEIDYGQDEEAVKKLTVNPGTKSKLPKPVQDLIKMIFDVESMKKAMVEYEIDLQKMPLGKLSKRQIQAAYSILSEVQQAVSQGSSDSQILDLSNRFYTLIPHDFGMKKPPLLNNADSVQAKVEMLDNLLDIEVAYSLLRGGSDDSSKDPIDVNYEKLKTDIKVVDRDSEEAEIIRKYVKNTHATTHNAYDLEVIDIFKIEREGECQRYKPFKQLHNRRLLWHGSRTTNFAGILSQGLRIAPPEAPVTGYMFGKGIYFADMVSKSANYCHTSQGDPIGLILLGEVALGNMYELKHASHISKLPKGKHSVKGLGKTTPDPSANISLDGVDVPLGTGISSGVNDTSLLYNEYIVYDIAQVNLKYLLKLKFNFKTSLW

| SMILES | IC50 [µM] |
| --- | --- |
| COc1cccc(CNC(=O)c2cncc(-c3c[nH]c(=O)c4c3CCCC4)c2)c1OC [Example 47, N-(2,3-dimethoxybenzyl)-5-(1-oxo-1,2,5,6,7,8-hexahydroisoquinolin-4-yl)nicotinamide] | 3.29 |
| O=C(NCc1ccncc1)c1cncc(-c2c[nH]c(=O)c3c2CCCC3)c1 [Example 48, 5-(1-oxo-1,2,5,6,7,8-hexahydroisoquinolin-4-yl)-N-pyridin-4-ylmethylnicotinamide] | 3.07 |
| CCN1CCCC1CNC(=O)c1cncc(-c2c[nH]c(=O)c3c2CCCC3)c1 (centres unmarked) [Example 49, N-(1-ethylpyrrolidin-2-ylmethyl)-5-(1-oxo-1,2,5,6,7,8-hexahydroisoquinolin-4-yl)nicotinamide] | 5.11 |
| Cc1[nH]c(=O)c2c(c1-c1ccc(CNCc3ccccc3)o1)CCCC2 [Example 51, 4-[5-(benzylaminomethyl)furan-2-yl]-3-methyl-5,6,7,8-tetrahydro-2H-isoquinolin-1-one] | 0.59 |
| Cc1[nH]c(=O)c2c(c1-c1ccc(CNCc3cnn(C)c3)o1)CCCC2 [Example 52, 3-methyl-4-(5-{[(1-methyl-1H-pyrazol-4-ylmethyl)amino]methyl}-furan-2-yl)-5,6,7,8-tetrahydro-2H-isoquinolin-1-one] | 0.33 |
| CCCCNCc1ccc(-c2c(C)[nH]c(=O)c3c2CCCC3)o1 [Example 53, 4-(5-butylaminomethylfuran-2-yl)-3-methyl-5,6,7,8-tetrahydro-2H-isoquinolin-1-one] | 0.24 |
| Cn1c(CNCc2ccc(-c3c[nH]c(=O)c4c3CCCC4)o2)nc2ccccc21 [Example 55, 4-(5-{[(1-methyl-1H-benzoimidazol-2-ylmethyl)amino]methyl}furan-2-yl)-5,6,7,8-tetrahydro-2H-isoquinolin-1-one] | 4.54 |
| O=c1[nH]cc(-c2ccc(CN3CCN(c4ncccn4)CC3)o2)c2c1CCCC2 [Example 56, 4-[5-(4-pyrimidin-2-ylpiperazin-1-ylmethyl)furan-2-yl]-5,6,7,8-tetrahydro-2H-isoquinolin-1-one] | 1.45 |
| O=c1[nH]cc(-c2ccc(CNCCN3CCCC3)o2)c2c1CCCC2 [Example 57, 4-{5-[(2-pyrrolidin-1-ylethylamino)-methyl]furan-2-yl}-5,6,7,8-tetrahydro-2H-isoquinolin-1-one] | 0.42 |
| O=c1[nH]cc(-c2ccc(CNCc3ccncc3)o2)c2c1CCCC2 [Example 58, 4-(5-{[(pyridin-4-ylmethyl)amino]-methyl}furan-2-yl)-5,6,7,8-tetrahydro-2H-isoquinolin-1-one] | 1.27 |
| O=c1[nH]cc(-c2ccc(CNCc3cccnc3)o2)c2c1CCCC2 [Example 59, 4-(5-{[(pyridin-3-ylmethyl)amino]-methyl}furan-2-yl)-5,6,7,8-tetrahydro-2H-isoquinolin-1-one] | 0.99 |
| O=c1[nH]cc(-c2ccc(CN3CCCC3)o2)c2c1CCCC2 [Example 61, 4-(5-pyrrolidin-1-ylmethylfuran-2-yl)-5,6,7,8-tetrahydro-2H-isoquinolin-1-one] | 0.11 |
| O=c1[nH]cc(-c2ccc(CNCc3ccccn3)o2)c2c1CCCC2 [Example 62, 4-(5-{[(pyridin-2-ylmethyl)amino]-methyl}furan-2-yl)-5,6,7,8-tetrahydro-2H-isoquinolin-1-one] | 1.53 |
| O=c1[nH]cc(-c2ccc(CN3CCC(O)C3)o2)c2c1CCCC2 (centres unmarked) [Example 63, 4-[5-(3-hydroxypyrrolidin-1-ylmethyl)furan-2-yl]-5,6,7,8-tetrahydro-2H-isoquinolin-1-one] | 0.24 |
| O=c1[nH]cc(-c2ccc(CNCN3CCC(N4CCCC4)CC3)o2)c2c1CCCC2 [Example 64, 4-(5-{[(4-pyrrolidin-1-ylpiperidin-1-ylmethyl)amino]methyl}furan-2-yl)-5,6,7,8-tetrahydro-2H-isoquinolin-1-one] | 0.34 |
| CN(C)CCNCc1ccc(-c2c[nH]c(=O)c3c2CCCC3)o1 [Example 65, 4-{5-[(2-dimethylaminoethyl-amino)methyl]furan-2-yl}-5,6,7,8-tetrahydro-2H-isoquinolin-1-one] | 0.46 |
| CN(Cc1ccc(-c2c[nH]c(=O)c3c2CCCC3)o1)Cc1nc2c(s1)CCCC2 [Example 66, 4-(5-{[methyl-(4,5,6,7-tetrahydro-benzothiazol-2-ylmethyl)amino]-methyl}furan-2-yl)-5,6,7,8-tetrahydro-2H-isoquinolin-1-one] | 1.18 |
| O=c1[nH]cc(-c2ccc(CN3CCCC3c3ccccn3)o2)c2c1CCCC2 (centres unmarked) [Example 67, 4-[5-(2-pyridin-2-ylpyrrolidin-1-ylmethyl)furan-2-yl]-5,6,7,8-tetrahydro-2H-isoquinolin-1-one] | 0.72 |
| O=c1[nH]cc(-c2ccc(CNCc3nc4ccccc4[nH]3)o2)c2c1CCCC2 [Example 68, 4-(5-{[(1H-benzimidazol-2-ylmethyl)amino]methyl}furan-2-yl)-5,6,7,8-tetrahydro-2H-isoquinolin-1-one] | 0.34 |
| Cn1ccnc1CN(Cc1ccccc1)Cc1ccc(-c2c[nH]c(=O)c3c2CCCC3)o1 [Example 69, 4-(5-{[benzyl(1-methyl-1H-imidazol-2-ylmethyl)amino]-methyl}furan-2-yl)-5,6,7,8-tetrahydro-2H-isoquinolin-1-one] | 2.76 |
| O=c1[nH]cc(-c2ccc(CNC3Cc4ccccc4C3)o2)c2c1CCCC2 [Example 70, 4-[5-(indan-2-ylaminomethyl)-furan-2-yl]-5,6,7,8-tetrahydro-2H-isoquinolin-1-one] | 0.31 |
| CN1CCN(CNCc2ccc(-c3c[nH]c(=O)c4c3CCCC4)o2)CC1 [Example 73, 4-(5-{[(4-methylpiperazin-1-ylmethyl)amino]methyl}furan-2-yl)-5,6,7,8-tetrahydro-2H-isoquinolin-1-one] | 0.66 |
| CC(=O)Nc1ccc(CNCc2ccc(-c3c[nH]c(=O)c4c3CCCC4)o2)cc1 [Example 75, N-[4-({[5-(1-oxo-1,2,5,6,7,8-hexahydroisoquinolin-4-yl)furan-2-ylmethyl]amino}methyl)phenyl]-acetamide] | 0.51 |
| O=c1[nH]cc(-c2ccc(CN3CCSC3)o2)c2c1CCCC2 [Example 76, 4-(5-thiazolidin-3-ylmethylfuran-2-yl)-5,6,7,8-tetrahydro-2H-isoquinolin-1-one] | 0.44 |
| Cn1cc(CNCc2ccc(-c3c[nH]c(=O)c4c3CCCC4)o2)cn1 [Example 77, 4-(5-{[(1-methyl-1H-pyrazol-4-ylmethyl)amino]methyl}furan-2-yl)-5,6,7,8-tetrahydro-2H-isoquinolin-1-one] | 0.18 |
| O=c1[nH]cc(-c2ccc(CNCc3ccccc3)o2)c2c1CCCC2 [Example 79, 4-[5-(benzylaminomethyl)furan-2-yl]-5,6,7,8-tetrahydro-2H-isoquinolin-1-one] | 0.15 |
| O=C(NCc1ccc(-c2c[nH]c(=O)c3c2CCCC3)o1)C(F)(F)F [Example 80, 2,2,2-trifluoro-N-[5-(1-oxo-1,2,5,6,7,8-hexahydroisoquinolin-4-yl)furan-2-ylmethyl]acetamide] | 0.54 |
| CC(C)CC(=O)NCc1ccc(-c2c[nH]c(=O)c3c2CCCC3)o1 [Example 81, 3-methyl-N-[5-(1-oxo-1,2,5,6,7,8-hexahydroisoquinolin-4-yl)furan-2-ylmethyl]butyramide] | 1.07 |
| O=C(NCc1ccc(-c2c[nH]c(=O)c3c2CCCC3)o1)c1ccco1 [Example 82, N-[5-(1-oxo-1,2,5,6,7,8-hexahydroisoquinolin-4-yl)furan-2-ylmethyl]furan-2-carboxamide] | 0.46 |
